Assay [1] concerns the target Major prion protein (Homo sapiens, UniProt P04156). Format: functional, cell-based.
A short description of assay [2]: cells.
Assay [3] deals with Beta-galactosidase (Escherichia coli, UniProt Q8VNN2). In words: Dose response counterscreen for EBI2 assay utilizing the enzyme, b-galactosidase. Format: functional.
For assay [4], the target named is Mitogen-activated protein kinase 10 (Homo sapiens, UniProt P53779). In words: Dose response biochemical screening assay for inhibitors of c-Jun N-Terminal Kinase 3 (JNK3). [Related pubchem assays: 746 ].
Assay [5] is described as follows: HeLa cell cytotoxicity, dose response, cytotoxicity control for MgcRacGAP inhibitor project (AID 624300). Format: functional.
For assay [6], the target named is T1, Rac GTPase-activating protein 1 (Homo sapiens, UniProt Q9H0H5).
T1 sequence (Q9H0H5 whole entry): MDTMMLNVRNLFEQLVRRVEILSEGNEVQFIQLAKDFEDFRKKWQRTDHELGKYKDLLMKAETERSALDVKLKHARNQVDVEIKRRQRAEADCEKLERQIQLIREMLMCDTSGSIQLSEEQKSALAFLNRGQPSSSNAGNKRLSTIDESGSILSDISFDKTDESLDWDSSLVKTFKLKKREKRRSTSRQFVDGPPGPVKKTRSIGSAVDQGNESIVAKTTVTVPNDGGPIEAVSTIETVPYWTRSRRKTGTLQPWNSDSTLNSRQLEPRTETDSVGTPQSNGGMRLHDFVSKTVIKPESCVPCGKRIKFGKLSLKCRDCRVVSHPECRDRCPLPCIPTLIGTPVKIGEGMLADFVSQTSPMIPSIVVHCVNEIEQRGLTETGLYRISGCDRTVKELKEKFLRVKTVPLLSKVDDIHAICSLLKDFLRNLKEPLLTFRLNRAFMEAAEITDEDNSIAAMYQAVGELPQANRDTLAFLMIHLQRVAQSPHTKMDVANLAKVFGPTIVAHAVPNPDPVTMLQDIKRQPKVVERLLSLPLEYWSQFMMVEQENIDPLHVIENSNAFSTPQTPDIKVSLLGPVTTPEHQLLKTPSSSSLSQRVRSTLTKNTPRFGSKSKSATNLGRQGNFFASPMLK
As to the kind of experiment: MgcRacGAP GTPase-activating activity inhibitors, confirmation, biochemical, ADP Hunter fluorescence, primary and confirmatory (AID 624330). Format: functional.

In assay [7] the test system is HeLa. As to the kind of experiment: HeLa cell cytotoxicity, dose response, cytotoxicity control, ATP luminescence, cherry-pick samples (AID 687004). To be noted: Homo sapiens. The format is functional, cell-based.
Assay [8] in a line: cells. Format: functional, cell-based.
In assay [9] the target is T2, Trace amine-associated receptor 1 (Homo sapiens, UniProt Q96RJ0).
T2 sequence (Q96RJ0 whole entry): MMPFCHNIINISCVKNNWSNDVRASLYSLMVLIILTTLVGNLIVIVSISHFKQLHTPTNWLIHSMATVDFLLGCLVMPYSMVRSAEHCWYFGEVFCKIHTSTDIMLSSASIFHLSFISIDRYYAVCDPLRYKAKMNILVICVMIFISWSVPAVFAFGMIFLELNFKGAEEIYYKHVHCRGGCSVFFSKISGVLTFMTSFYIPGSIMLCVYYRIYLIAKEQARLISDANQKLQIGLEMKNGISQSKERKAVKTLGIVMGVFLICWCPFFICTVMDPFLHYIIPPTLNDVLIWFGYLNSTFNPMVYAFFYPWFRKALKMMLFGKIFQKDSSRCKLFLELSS
In words: Fluorescence-based cell-based high throughput dose response assay to identify agonists of the human trace amine associated receptor 1 (TAAR1). The format is functional.

Assay [10] addresses T2, Trace amine-associated receptor 1. As to the kind of experiment: Counterscreen for agonists of the human trace amine associated receptor 1 (hTAAR1): Fluorescence-based cell-based high throughput dose response assay to identify hTAAR1 agonist that also desensitize TAAR1 receptor response. The format is functional.
Assay [11] is described as follows: cells. The format is functional, cell-based. This is another data set of the same source.
Assay [12] has as its target Cytochrome P450 2D6 (Homo sapiens, UniProt P10635).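 Note: CYP2D6 member of a cytochrome P450 panel assay.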
Assay [13] in a line: NIH/3T3 fibroblast cytotoxicity, dose response, cytotoxicity control for T. cruzi growth inhibitor project, cell-based, cherry-pick samples, set 2 (AID 651817). Format: functional. The note with it: NIH3T3.
Assay [14] in a line: intracellular Trypanosoma cruzi inhibitors in host cells – cell-based, plate reader, cherry-pick samples, set 3, dose response (AID 651818).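 Note: compounds incubated with infected cells for about four days.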 Format: functional.
Assay [15] relates to Streptococcus sp. 'group A'. As to the kind of experiment: growth inhibition of control SK(-) GAS strain, dose response, counter-screen for streptokinase expression inhibitor project, luminescence, kanamycin, BacTiterGlo, confirmation (AID 1900). Format: functional, organism-based.
Assay [16] relates to Streptococcus. In words: Group A Streptococcus viability loss, dose response, counter-screen for streptokinase expression inhibitor project, luminescence, BacTiterGlo (AID 1915).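 Note: potency for reduction of bacterial viability or growth.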 The format is functional, organism-based.
A short description of assay [17]: human group III sPLA2 inhibitors, dose response, biochemical, QFRET, IC50 (AID 743457).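 Note: green fluorescence rise as the enzyme cleaves BODIPY PC-A2 in liposomes; potency for inhibition of the enzyme.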
Assay [18] deals with T3, Corticotropin-releasing factor receptor 2/Corticotropin-releasing factor-binding protein (Homo sapiens, UniProt P24387+Q13324).
T3 sequence (Q13324 whole entry): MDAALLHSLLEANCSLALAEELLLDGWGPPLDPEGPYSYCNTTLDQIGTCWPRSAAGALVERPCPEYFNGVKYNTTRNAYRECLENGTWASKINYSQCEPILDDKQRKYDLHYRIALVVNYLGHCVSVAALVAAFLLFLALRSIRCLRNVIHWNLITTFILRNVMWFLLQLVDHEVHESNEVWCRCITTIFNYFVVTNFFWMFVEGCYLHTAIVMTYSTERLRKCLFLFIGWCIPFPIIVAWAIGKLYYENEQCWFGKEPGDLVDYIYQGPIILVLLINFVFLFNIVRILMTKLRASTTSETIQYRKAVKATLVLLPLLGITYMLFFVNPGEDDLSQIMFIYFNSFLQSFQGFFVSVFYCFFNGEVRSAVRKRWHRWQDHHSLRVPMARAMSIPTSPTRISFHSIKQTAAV
T3 sequence (P24387 whole entry): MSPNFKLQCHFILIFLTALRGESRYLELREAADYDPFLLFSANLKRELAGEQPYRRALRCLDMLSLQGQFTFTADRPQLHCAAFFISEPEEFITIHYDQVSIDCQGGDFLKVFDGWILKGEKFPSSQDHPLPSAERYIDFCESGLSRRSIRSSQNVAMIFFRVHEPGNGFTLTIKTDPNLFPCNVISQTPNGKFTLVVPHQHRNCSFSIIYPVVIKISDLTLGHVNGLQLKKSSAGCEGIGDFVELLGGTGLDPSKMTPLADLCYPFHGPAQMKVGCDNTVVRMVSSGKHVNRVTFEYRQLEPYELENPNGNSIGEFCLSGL
In words: Dose Response confirmation of uHTS hits for small molecule antagonists of the CRF-binding protein and CRF-R2 receptor complex. The format is functional. The note with it: read-out: IC50_Mean.

For assay [19], the target named is T3, Corticotropin-releasing factor receptor 2/Corticotropin-releasing factor-binding protein. In words: activators of CRF receptor 2 with binding protein – uHTS hits, confirmation (AID 602473). Format: functional. To be noted: read-out: EC50_Mean.
The target of assay [20] is DNA repair protein RAD52 homolog (Homo sapiens, UniProt P43351). The format is functional, biochemical.
The nature of assay [21]: HepG2 cell cytotoxicity, dose response, cytotoxicity control, ATP luminescence, cherry-pick, activator set 2 (AID 1053143). The format is functional, cell-based.
Assay [22] is described as follows: inhibitors of intracellular T. cruzi replication, confirmation, NIH3T3 host cells, beta-gal luminescence (AID 2044).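 Note: intracellular parasites grown in NIH/3T3 mouse fibroblasts as host cells; luminescent beta-galactosidase reporter signal from transgenic T. cruzi replicating inside host cells; inhibitors lower the luminescence signal.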 Format: functional, cell-based.
The nature of assay [23]: cytotoxicity toward NIH3T3 fibroblasts, dose response, counter-screen, cell-based, ATP luminescence, mouse fibroblasts (AID 2010).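 Note: cells exposed to compound for about 90 hours before reading.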 The format is functional.

Active and inactive are the calls of the source. Bounds are passed on as bounds.

In the case of `Cn1c(N2CCC(C(N)=O)CC2)nc2c1c(=O)n(Cc1cccc(Br)c1)c(=O)n2C`, the IC50 was 8.38 µM (active) in assay [1] and > 138 µM (inactive) in [2].

Consider `Cc1ccc(S(=O)(=O)N2CCN(C(=O)COc3ccc(Br)cc3)CC2)cc1`, for which the IC50 in assay [3] was > 80 µM (inactive).

`COC(=O)c1sccc1NC(=O)C1CC=CCC1C(=O)O` (stereo not given): the IC50 was 19.8 µM (not active) in assay [4], 2.48 µM (active) in assay [1] and > 138 µM (inactive) in [2].

`CC1CC(=O)N(c2ccc(NCCc3ccc(O)cc3)c([N+](=O)[O-])c2)C1=O` (stereo not given): the CC50 in assay [5] is 100 µM (active). Further, in assay [6], the IC50 is 52.9 µM (active).

As for `CO[C@H]1CN(C)C(=O)c2cc(NS(=O)(=O)CC(F)(F)F)ccc2OC[C@@H](C)N(Cc2cccnc2)C[C@@H]1C`, the half-maximal activity concentration (AC50) in assay [7] was 21.5 µM (active).

On to `c1ccc2cc(CC3=NCCN3)ccc2c1`, for which the IC50 in [8] is > 30 µM (inactive); in assay [10], 3.65 µM (active). For the same molecule, the EC50 in assay [9] is 0.322 µM (active); in assay [11], > 30 µM (inactive). Also, in assay [12], the AC50 was 39.8 µM (inconclusive).

`CC1(C)CC(=O)C(C(=O)/C=C/NCCc2ccccc2)C(=O)C1`: the IC50 is > 29.9 µM (inactive) in assay [8] and 7.8 µM (active) in assay [10]. For the same molecule, the EC50 in [9] was 1.46 µM (active); in [11] it was > 29.9 µM (inactive).

For the molecule `C[C@H](CO)N1C[C@H](C)[C@@H](CN(C)Cc2ccccc2)Oc2c(NC(=O)c3ccncc3)cccc2C1=O`, the AC50 was 39 µM (inactive) in [13] and 0.179 µM (active) in assay [14].

Consider `C[C@H](CO)N1C[C@H](C)[C@H](CN(C)S(=O)(=O)c2ccc(Cl)cc2)Oc2c(NC(=O)c3nc4ccccc4s3)cccc2C1=O`, for which the concentration at half-maximal activity (AC50) in assay [13] is 21.9 µM (active).

As for `COc1ccc(/C=C/C(=O)NC(=S)NNC(=O)c2ccco2)cc1`, the results for the EC50 in assay [15] and in [16] were 1.72 µM (active) and 3.29 µM (active), respectively. For the same molecule, the IC50 in assay [17] is 34.9 µM (inactive).

With `Fc1ccc(-n2c(S)nnc2-c2ccc3c(c2)OCO3)cc1Cl`, the IC50 in [17] is > 122 µM (inactive).

As for `Cc1ccc(-c2c[n+](CC(=O)Nc3nc(-c4ccc(F)cc4)cs3)c3n2CCC3)cc1`, the IC50 in assay [18] is > 47.1 µM (inactive). Also, the EC50 in [19] was > 53 µM (inactive). For the same molecule, the concentration at half-maximal activity (AC50) in [20] is 11.2 µM (active).

`Cc1ccc2c(c1)-c1nc3ccccc3cc1/C2=N/C1CCCCC1`: the half-maximal activity concentration (AC50) in assay [21] was 22.2 µM (active).

Turning to `COc1ccc(-c2cn(-c3ccc(OC)cc3)c(S)n2)cc1`, the IC50 in assay [3] was > 80 µM (inactive).

In the case of `Cc1ccc2cc(NC(=O)c3ccccc3)ccc2n1`, in assay [7], the AC50 was > 52 µM (inactive).

In the case of `COCc1cc([S+]([O-])c2ccc(Cl)cc2)nc(C)n1` (stereo not given), the EC50 in assay [22] is 1.78 µM (active); in [23], > 60 µM (not active). Besides, the CC50 in assay [5] was 95 µM (active). Also, the IC50 in [6] was 87.8 µM (active).

(Values after ChEMBL document CHEMBL1201862, “PubChem BioAssay data set” (2004).)
